Measurements from PMC6030077, “Dual role of HDAC10 in lysosomal exocytosis and DNA repair promotes neuroblastoma chemoresistance” (Scientific Reports, 2018).

Assays:
Format in all cases: cell-based, human
BE(2)-C cells [1] = assay: Flow cytometric analysis of LysoTracker DND-99 staining (lysosomal accumulation); conditions: 24 h
Description: Six days after siRNA transfection or 24 h after treatment with HDAC or lysosomal inhibitors, cells were stained for 1 h with 50 nM LysoTracker® Red DND-99 in medium under standard cell culture conditions. Cells were washed with ice-cold RPMI w/o phenol-red and detached using Trypsin/EDTA for 3 minutes at 37 °C. Cells were centrifuged, resuspended in RPMI w/o phenol red and LysoTracker® Red fluorescence was quantified on a BD FACSCanto II platform using the PE filter setting.

BE(2)-C cells [2] = assay: Flow cytometric quantification of intracellular doxorubicin accumulation, BE(2)-C
Description: (§1) For flow cytometric quantification of intracellular doxorubicin after HDAC6/10 inhibition, BE(2)-C, SK-N-AS, IMR-32, HAP1 wild type and HDAC10 knockout cells were seeded in 6-well dishes at a density of 1.5 ∗ 10^5 cells/well (BE(2)-C and SK-N-AS, HAP1) and 3 ∗ 10^5 cells/well (IMR-32). Cells were treated with 25 ng/ml, 50 ng/ml, 100 ng/ml or 1 µg/ml doxorubicin, respectively, for 3–48 h (see respective figure legend). Where indicated, cells were co-treated with HDAC6/10 or lysosomal inhibitors. In case of co-treatment with vacuolin-1, vacuolin-1 was directly added to cells under doxorubicin treatment 1 h or 24 h prior to analysis. Flow cytometric quantification of intracellular doxorubicin after HDAC6, HDAC10 or P-glycoprotein knockdown in BE(2)-C cells was performed 5 days (P-glycoprotein) or 6 days (HDAC6/10) after transfection with siRNA. To that end, cells were seeded 3–4 days after transfection into 6-well dishes at 1.5 ∗ 10^5 cells per well and treated with 100 ng/ml doxorubicin +/− HDAC6/10 and lysosomal inhibitors for the last 24 h. After doxorubicin treatment, BE(2)-C, SK-N-AS, IMR-32 and HAP1 cells were washed with ice-cold RPMI w/o phenol-red and detached using Trypsin/EDTA for 3 minutes at 37 °C. Cells were centrifuged, resuspended in RPMI w/o phenol red and doxorubicin fluorescence was quantified on a BD FACSCanto II platform using the PE filter setting.

SK-N-AS cells = assay: Flow cytometric quantification of intracellular doxorubicin accumulation, SK-N-AS; conditions: 100 ng/ml doxorubicin +/− 7.5 µM tubastatin A, 48 h
Description: as §1

BE(2)-C cells [3] = assay: Confocal fluorescence microscopy of doxorubicin-loaded damaged nuclei; conditions: 250 ng/ml doxorubicin + 7.5 µM tubastatin A, 24 h
Description: BE(2)-C cells were seeded at a density of 2 ∗ 10^4 cells per well into an ibidi 8-well µ-slide one day before treatment. For analysis of doxorubicin uptake, cells were treated with 250 ng/ml doxorubicin +/− HDAC6/10 or lysosomal inhibitors for 24 h. The next day, cells were washed in PBS, fixed for 20 minutes using 4% PFA at room temperature, washed twice with PBS and counterstained with DAPI (4′,6-Diamidino-2-phenylindole). In case of LysoTracker® Red staining, cells were treated for 24 h with HDAC6/10 inhibitors. One hour before fixation, LysoTracker® Red was added at a final concentration of 50 nM and cells were stained for 1 h under standard cell culture conditions. Cells were washed as described, fixed for 15 minutes using 4% PFA at room temperature and counterstained as described above. […] Cells were fixed for 15 minutes using 4% PFA, permeabilized for 30 minutes with 0.2% Triton X-100 and blocked in 0.05% Triton X-100 and 3% BSA in PBS for 1 h at room temperature. Cells were stained with Phospho-Histone H2A.X (S139) primary antibody (CST #9718) over night (4 °C) and for 2 h with Alexa-488-labeled secondary antibody (ThermoFisher A-11008) at room temperature. Nuclei were counterstained with DAPI. Images were acquired on a Zeiss LSM710 (Oberkochen, Germany) laser scanning confocal microscope using the 40× objective.

BE(2)-C cells [4] = assay: Pulse-chase analysis of doxorubicin secretion/retention; conditions: 12 h pre-treatment, 1 µg/ml doxorubicin 3 h, washout, relative to t0
Description: To test whether HDAC10 inhibition prolonged the retention of doxorubicin, we used a pulse-chase approach in which BE(2)-C cells were pre-treated over night with HDAC6/10 inhibitors and then loaded with high concentrations of doxorubicin for 3 h (1 µg/ml). After doxorubicin washout, HDAC6/10 or HDAC6 inhibitors were re-added (t0), and intracellular doxorubicin fluorescence was measured at t0, as well as 3 h (t3h) and 6 h (t6h) after doxorubicin removal (Fig. 5h–k). […] In summary, secretion of doxorubicin was slowed down in case of HDAC6/10 inhibition but not by specific HDAC6 inhibition alone.
as §1

CN1CCc2c(c3ccccc3n2Cc2ccc(C(=O)NO)cc2)C1 [tubastatin A]
lysosomal accumulation (LysoTracker staining) (BE(2)-C cells [1]; bufexamac 30 µM, tubastatin A 7.5 µM, tubacin 7.5 µM, VPA 1 mM, vacuolin-1 10 µM): caused lysosomal accumulation | lysosomal accumulation on combination with vacuolin-1 compared to vacuolin-1 alone (BE(2)-C cells [1]; tubastatin A 7.5 µM + vacuolin-1 10 µM): no additional lysosomal accumulation | intracellular doxorubicin after co-treatment (BE(2)-C cells [2]; 100 ng/ml doxorubicin, 48 h, bufexamac 30 µM, tubastatin A 7.5 µM, tubacin 7.5 µM): increased intracellular doxorubicin | intracellular doxorubicin levels, short-term (BE(2)-C cells [2]; 12 h pre-treatment with inhibitor, then 1 µg/ml doxorubicin for 3 h): increased intracellular doxorubicin levels | doxorubicin accumulation, SK-N-AS (SK-N-AS cells): increased accumulation of doxorubicin | dying cells with highly condensed chromatin, combination with doxorubicin compared to doxorubicin alone (BE(2)-C cells [3]): increased the number of dying cells | retention of intracellular doxorubicin 3 h and 6 h after doxorubicin removal (BE(2)-C cells [4]): retained higher levels of intracellular doxorubicin
